Tests used:
[1] = system: CH1; assay: Compound was evaluated for cytotoxicity against CH1 cell line; type: functional, cell-based; details: Homo sapiens
[2] = system: A2780; assay: Compound was evaluated for cytotoxicity against A2780 cell line; type: functional, cell-based; details: Homo sapiens

Row | Structure (SMILES) | IC50 [1] [nM] | IC50 [2] [nM]
1 | COc1ccc(-c2ccc3c(c2)C(=O)N2CCC[C@H]2C=N3)cc1 | 1350 | 560
2 | O=C1c2cc(-c3ccccc3)ccc2N=C[C@@H]2CCCN12 | 1500 | 1150
3 | O=C1c2cc(-c3cccc([N+](=O)[O-])c3)ccc2N=C[C@@H]2CCCN12 | 22500 | 34500
4 | COc1ccccc1-c1ccc2c(c1)C(=O)N1CCC[C@H]1C=N2 | 4800 | 1180
5 | Cc1ccc(-c2ccc3c(c2)C(=O)N2CCC[C@H]2C=N3)cc1 | 1500 | 580
6 | O=C1c2cc(-c3ccc(F)cc3)ccc2N=C[C@@H]2CCCN12 | 4700 | 660

Reference: ChEMBL document CHEMBL1130651, “Synthesis of novel C7-aryl substituted pyrrolo[2,1-c][1,4]benzodiazepines (PBDs) via pro-N10-Troc protection and Suzuki coupling” (Bioorg Med Chem Lett, 1998)
